Patent publication EP4682141A1, “TRICYCLIC COMPOUND” (ONO Pharmaceutical Co., Ltd., priority 2023, dated 2024)
pEC50: −log10 of the molar value.

Key:
diabetes model rat = assay: inhibitory effect on the amount of albumin excreted in urine in diabetes model rat; type: in vivo, SDT Fatty rats; conditions: urine collected for 24 hours, urine albumin/urine creatinine ratio
Protocol: Male SDT Fatty rats aged 6 weeks (CLEA Japan) were purchased and preliminarily bred for 1 week or more. Experiments were performed at 8 to 16 weeks of age. The animals were fed ad libitum with solid feed CRF-1 (Oriental Yeast) and watered ad libitum.
Animals were housed in metabolic cages 2 days before test substance administration, and urine was collected for 24 hours. On the day before administration of the test substance, urine albumin and urine creatinine were measured, and grouping was performed by a stratification randomization method based on the urine albumin/urine creatinine ratio (ACR) and the average value of body weights for each group.
The compounds (test substances) of Examples 9-5, 10, 11, 12, 25-7 and 32, and water for injection (Otsuka Pharmaceutical) as a vehicle were orally administered once at 5 mL/kg. The administration dose is described in Table 3.
For evaluation of the amount of albumin excreted in urine of each animal, a urine albumin/urine creatinine ratio (ACR) was measured. After administration of the test substance, the animals were housed in metabolic cages, and urine was collected for 24 hours. Each concentration of urine albumin and urine creatinine was measured using an automatic analyzer 7180 (Hitachi High-Tech), and ACR was calculated by dividing the urine albumin concentration by the urine creatinine concentration.

EP1 = target: T1, EP1 (Homo sapiens, UniProt P34995); assay: agonist activity on human EP1 receptor (intracellular calcium concentration, EP1-CHO cells); type: cell-based
T1 construct: expressed in transfected cells; host or cells: CHO (EP1-CHO)
T1 sequence (P34995 1-402): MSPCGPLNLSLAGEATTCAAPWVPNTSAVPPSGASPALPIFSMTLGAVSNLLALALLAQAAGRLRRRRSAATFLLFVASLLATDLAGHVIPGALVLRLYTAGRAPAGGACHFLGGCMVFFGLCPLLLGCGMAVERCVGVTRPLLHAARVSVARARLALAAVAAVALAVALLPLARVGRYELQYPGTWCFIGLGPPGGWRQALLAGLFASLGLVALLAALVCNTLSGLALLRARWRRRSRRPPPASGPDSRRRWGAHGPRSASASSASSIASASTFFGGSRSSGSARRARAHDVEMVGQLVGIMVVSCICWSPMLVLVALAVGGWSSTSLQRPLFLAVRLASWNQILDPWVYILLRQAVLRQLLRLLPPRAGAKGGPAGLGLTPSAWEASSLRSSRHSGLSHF
Protocol: Using CHO cells (EP1-CHO, EP2-CHO, EP3-Chem1, EP4-CHO and IP-CHO) on which various human prostanoid receptors were forcibly expressed, the agonist activity of the test compound on the various prostanoid receptors was examined using the intracellular calcium concentration for EP1 and EP3, and the intracellular cyclic AMP (hereinafter, abbreviated as cAMP) production amount for EP2, EP4 and IP as indices.
The test compound and control substances (PGE2 and iloprost) were dissolved in dimethyl sulfoxide (DMSO) to prepare a 10 mmol/L solution. The prepared 10 mmol/L solution was thawed at the time of use, serially diluted using DMSO, and diluted with a buffer solution 1 for measurement (Hank's balanced salt solution (Thermofischer scientific) containing 1 w/v% human serum albumin (Sigma), 2 µmol/L indomethacin (Sigma), 2.5 mmol/L probenecid, and 10 mmol/L HEPES-NaOH (pH7.4)) or a buffer solution 2 for measurement (D-PBS (Nacalai Tesque) containing 0.1 w/v% human serum albumin, 2 µmol/L diclofenac (Sigma), and 1 mmol/L 3-isobutyl-1-methylxanthine (Sigma)) to perform experiments.
The intracellular calcium concentration was measured using Calcium 6 Assay Kit (Molecular Devices). On the day before the measurement, EP1-CHO and EP3-Chem 1 were obtained by thawing the frozen cells, suspended using Ham's F-12 medium (Thermofischer scientific) containing inactivated (56°C, 30 min) 9.8 vol% FBS (Thermofischer scientific) and penicillin-streptomycin (Nacalai Tesque), seeded into a 96 well UV plate to 1.0×10^5 cells per well, and static cultured at 37°C in the presence of 5%CO2. On the day of the measurement, the medium was removed, followed by addition of 120 µL of the Calcium indication solution dissolved in the buffer solution 1 for measurement and incubation at room temperature under light-shielding for about 1 hour. After 1 hour incubation, the 96 well UV plates were set in a fluorescence spectrophotometer (FDSS-7000, Hamamatsu Photonics) to measure the intracellular calcium concentration. Thirty microliters of the buffer solution 1 for measurement containing various concentrations of agonists were added, and the mixture was reacted. The intracellular calcium concentration was measured by irradiating the cells with 480 nm excitation light and measuring the fluorescence intensity at 540 nm.

[1] = test system: Alport syndrome model mice; assay: in vivo drug efficacy in Alport syndrome model mice; parameters: species or system COL4A5 homozygote knockout mice; conditions: Control-4 group: irbesartan (50 mg/kg) orally once a day for 17 weeks; 16 weeks after the start of administration
Protocol: The in vivo drug efficacy of the present compound on Alport syndrome was evaluated using COL4A5 (causative gene of Alport syndrome) knockout mice.
Male wild-type mice and female COL4A5 hetero knockout mice were naturally crossed to obtain offspring. Genotypes of the offspring were confirmed and male COL4A5 homozygote knockout mice were obtained.
The obtained animals were fed ad libitum with CE-2 (CLEA Japan), and watered ad libitum.
The mice were divided into groups using a statistical analysis system EXSUS10.0 so that the body weight and the urine albumin/urine creatinine value at the time of 6 weeks of age were almost uniform in each group.
The test substance and water for injection (Otsuka Pharmaceutical) as a vehicle were orally administered at 10 mL/kg once a day for 17 weeks.
The Control-3 group was orally administered water for injection at 10 mL/kg once a day for 17 weeks. In the Control-4 group, water for injection and an administration solution of irbesartan which is a renin angiotensin system inhibitor were mixed in equal amounts at 5 mL/kg each, and orally administered once a day for 17 weeks.
The administration dose is described in Table 11.
Blood collection was performed by cutting the tail vein of the mice a little with a razor and using a hematocrit capillary. Blood was centrifuged to obtain plasma. Urine was collected for about 16 hours in a metabolic cage for mouse under conditions in which a solid feed and water can be freely taken. The obtained urine sample was centrifuged, and the supernatant was subjected to measurement. Urine albumin (U-ALB) and urine creatinine (U-CRE) concentrations were measured by an automatic analyzer Hitachi 7180 (Hitachi High-Tech), and the creatinine concentration in plasma was measured using LabAssay Creatinine (Fujifilm Wako Shibayagi).

Compound	pEC50 (EP1)	also measured
O=C(O)c1ccc2c(c1F)O[C@H]1C[C@@H](Cl)[C@H](/C=C/C(O)C3(c4ccccc4)CCO3)[C@H]1CC2 (stereo partly drawn) [Example 32-6, (1R,2R,3aS,10aR)-2-chloro-5-fluoro-1-{(1E,3ξ)-3-hydroxy-3-[(2ξ)-2-phenyl-2-oxetanyl]-1-propen-1-yl}-2,3,3a,9,10,10a-hexahydro-1H-benzo[b]cyclopenta[f]oxepine-6-carboxylic acid]	< 5.00	
CCCC[C@H](C)C(O)/C=C/[C@H]1OC[C@@H]2Oc3c(ccc(C(=O)O)c3C)CC[C@@H]21 (stereo partly drawn) [Example 41, (1R,3aR,10aR)-1-[(1E,3ξ,4S)-3-hydroxy-4-methyl-1-octen-1-yl]-5-methyl-1,3,3a,9,10,10a-hexahydrofuro[3,4-b][1]benzoxepine-6-carboxylic acid]	< 5.00	
Cc1c(C(=O)O)ccc2c1O[C@H]1CO[C@H](/C=C/C(O)C3(Oc4ccccc4)CCC3)[C@H]1CC2 (stereo partly drawn) [Example 41-2, (1R,3aR,10aR)-1-[(1E,3ξ)-3-hydroxy-3-(1-phenoxycyclobutyl)-1-propen-1-yl]-5-methyl-1,3,3a,9,10,10a-hexahydrofuro[3,4-b][1]benzoxepine-6-carboxylic acid]	< 5.00	
CCCCC1=NC2(CCCC2)C(=O)N1Cc1ccc(-c2ccccc2-c2nnn[nH]2)cc1 [Irbesartan, irbesartan, reference compound]		Plasma creatinine mean [1]: 0.771 mg/dL; Urine Albumin/ Urine Creatinine Ratio mean [1]: 31414.47 mg/g

Second part, led by results:

pEC50 (EP1)	Compound	also measured
< 5.00	Cc1c(C(=O)O)ccc2c1O[C@H]1C[C@@H](O)[C@H](/C=C/C(O)C3(c4ccc(F)cc4)CCC3)[C@H]1CC2 (stereo partly drawn) [Example 9-5, (1R,2R,3aS,10aR)-1-{(1E,3ξ)-3-[1-(4-fluorophenyl)cyclobutyl]-3-hydroxy-1-propen-1-yl}-2-hydroxy-5-methyl-2,3,3a,9,10,10a-hexahydro-1H-benzo[b]cyclopenta[f]oxepine-6-carboxylic acid]	ACR mean (diabetes model rat; 0.1 mg/kg orally once): 4691.4 µg/mg; ACR mean (diabetes model rat; 0.3 mg/kg orally once): 4466.2 µg/mg
< 5.00	O=C(O)c1ccc2c(c1F)O[C@H]1C[C@@H](F)[C@H](/C=C/C(O)C3(c4ccccc4)COC3)[C@H]1CC2 (stereo partly drawn) [Example 28-2, (1R,2R,3aS,10aR)-2,5-difluoro-1-[(1E,3ξ)-3-hydroxy-3-(3-phenyl-3-oxetanyl)-1-propen-1-yl]-2,3,3a,9,10,10a-hexahydro-1H-benzo[b]cyclopenta[f]oxepine-6-carboxylic acid]	
< 5.00	O=C(O)c1ccc2c(c1F)O[C@H]1C[C@@H](Cl)[C@H](/C=C/C(O)C3(c4ccccc4F)COC3)[C@H]1CC2 (stereo partly drawn) [Example 32, (1R,2R,3aS,10aR)-2-chloro-5-fluoro-1-{(1E,3ξ)-3-[3-(2-fluorophenyl)-3-oxetanyl]-3-hydroxy-1-propen-1-yl}-2,3,3a,9,10,10a-hexahydro-1H-benzo[b]cyclopenta[f]oxepine-6-carboxylic acid]	ACR mean (diabetes model rat; 0.03 mg/kg orally once): 3391 µg/mg; ACR mean (diabetes model rat; 0.1 mg/kg orally once): 3086.1 µg/mg
